The values below come from US5962417A, “Methods of modulating melanin synthesis” (Trustees of Boston University, priority 1998, dated 1999).

The test system of one assay is TRP 1. As to the method:
(§1) To investigate whether PKC regulates other melanogenic proteins such as tyrosinase related proteins (TPR 1 and TPR 2), melanocytes were treated with 10^-7 M TPA for 2 weeks, a condition known to deplete PKC, and TRP 1 and TRP 2 protein levels were determined using immunoblot analysis with specific antibodies. […] TRP 1 and TRP 2 were immunoprecipitated and incorporation of ^3 H-glycosamine into these proteins was examined.

Another assay addresses TRP 2. As to the method:
as §1

The mark [1] stands for this setting: 10^-7 M TPA for 2 weeks (PKC depletion), melanocytes.
Setting [2] is: TPA for 2 weeks, melanocytes labeled with 3H-glycosamine.

A value given as a limit tells only on which side of the number the result lay.

Take `CCCCCCCCCCCCCC(=O)O[C@@H]1[C@@H](C)[C@@]2(O)[C@@H](C=C(CO)C[C@]3(O)C(=O)C(C)=C[C@@H]23)[C@@H]2C(C)(C)[C@]12OC(C)=O` [TPA, tetraphorbol acetate]: the “effect on TRP 1 protein level” value in the assay with TRP 1 (setting [1]) is reported as “no effect”. The “effect on glycosylated or non-glycosylated form of TRP 1 (3H-glycosamine labeling)” value in the assay with TRP 1 (setting [2]) was “did not affect”. Moreover, on TRP 2 (setting [1]), the “effect on 65 kd non-glycosylated TRP 2 precursor” value is “unaffected” and the “reduction of level of glycosylated mature form of TRP 2 (80 kd)” value was 50-70%. The “reduction of 3H-glycosamine incorporation into TRP 2” value with TRP 2 (setting [2]) is over 50%.
